# From US8394442B2, “Process for the preparation of a flavoring concentrate, and a flavoring concentrate” (SYMRISE AG, priority 2007, dated 2013)
# Experiments:
# [1] = log Pow: distribution coefficient between 1-octanol and water; conditions: 1-octanol/water
# Description: Log Pow*=log Pow*−x*P′(x)/log Pow Formula 2: • where log Pow is the decimal logarithm of the distribution coefficient of a substance between 1-octanol and water, • x is the resulting solvent proportion based on the total volume proportion, normalized as 1.0, and • P′(x) is the polarity parameter for the corresponding solvent for the solvent proportion x.
# [2] = log Pow* calculated by Formula 2 from log Pow and the polarity parameter P′(x) of the ethanol/water mixture; conditions: solvent ethanol; for log Pow* (P′ 2%): proportion 2%; for log Pow* (P′ 4%): proportion 4%; for log Pow* (P′ 6%): proportion 6%; for log Pow* (P′ 8%): proportion 8%; for log Pow* (P′ 10%): proportion 10%; for log Pow* (P′ 30%): proportion 30%; for log Pow* (P′ 40%): proportion 40%; for log Pow* (P′ 50%): proportion 50%; for log Pow* (P′ 60%): proportion 60%; for log Pow* (P′ 70%): proportion 70%; for log Pow* (P′ 80%): proportion 80%; for log Pow* (P′ 90%): proportion 90%; for log Pow* (P′ 100%): proportion 100%
Compound,log Pow [1],log Pow* (P′ 2%) [2],log Pow* (P′ 4%) [2],log Pow* (P′ 6%) [2],log Pow* (P′ 8%) [2],log Pow* (P′ 10%) [2],log Pow* (P′ 30%) [2],log Pow* (P′ 40%) [2],log Pow* (P′ 50%) [2],log Pow* (P′ 60%) [2],log Pow* (P′ 70%) [2],log Pow* (P′ 80%) [2],log Pow* (P′ 90%) [2],log Pow* (P′ 100%) [2]
CC(=O)/C=C/C1C(C)=CCCC1(C)C (stereo not drawn) [alpha-ionone],3.86,3.81,3.76,3.71,3.67,3.63,3.30,3.18,3.08,2.99,2.92,2.85,2.80,2.75
C/C=C/C(=O)C1=C(C)C=CCC1(C)C [beta-damascenone],4.40,4.35,4.31,4.27,4.23,4.20,3.91,3.80,3.71,3.64,3.57,3.52,3.47,3.42
CC(=O)/C=C/C1=C(C)CCCC1(C)C [beta-ionone],3.85,3.80,3.75,3.70,3.66,3.62,3.29,3.17,3.06,2.98,2.90,2.84,2.78,2.73
CCCCCC1CCCC(=O)O1 (stereo not shown) [delta decalactone],2.42,2.34,2.26,2.19,2.12,2.05,1.52,1.33,1.17,1.03,0.92,0.81,0.72,0.64
CCCCCCC1CCC(=O)O1 (stereo not shown) [gamma-decalactone],2.38,2.30,2.22,2.14,2.07,2.00,1.47,1.27,1.11,0.97,0.85,0.75,0.65,0.57
"CC1=CCC(C(C)(C)S)CC1 (stereo not shown) [p-menthenethiol-1,8]",4.04,3.99,3.94,3.90,3.86,3.82,3.50,3.39,3.29,3.21,3.14,3.08,3.02,2.98
Ethyldimethylpyrazine,1.60,1.48,1.36,1.25,1.14,1.04,0.25,−0.05,−0.29,−0.50,−0.68,−0.83,−0.97,−1.09
Isopropylmethoxypyrazine,2.09,1.99,1.90,1.82,1.74,1.66,1.05,0.83,0.64,0.48,0.35,0.23,0.12,0.03
